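Method: 48-hour compound exposure of cells in 96-well plates, five concentrations, linear interpolation of endpoints. Definition used: TGI = concentration required for complete inhibition of growth.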
Columns and labels:
Assay in all cases: DTP human tumour cell line panel, 48 h
786-0 renal = system: 786-0 renal
A498 renal = system: A498 renal
A549 NSCLC = system: A549 NSCLC
ACHN renal = system: ACHN renal
BT-549 breast = system: BT-549 breast
CAKI-1 renal = system: CAKI-1 renal
CCRF-CEM leukemia = system: CCRF-CEM leukemia
COLO 205 colon = system: COLO 205 colon
DU-145 prostate = system: DU-145 prostate
EKVX NSCLC = system: EKVX NSCLC
HCT-116 colon = system: HCT-116 colon
HCT-15 colon = system: HCT-15 colon
HL-60(TB) leukemia = system: HL-60(TB) leukemia
HOP-62 NSCLC = system: HOP-62 NSCLC
HS 578T breast = system: HS 578T breast
HT29 colon = system: HT29 colon
IGROV1 ovarian = system: IGROV1 ovarian
K-562 leukemia = system: K-562 leukemia
KM12 colon = system: KM12 colon
LOX IMVI melanoma = system: LOX IMVI melanoma
M14 melanoma = system: M14 melanoma
MALME-3M melanoma = system: MALME-3M melanoma
MCF7 breast = system: MCF7 breast
MDA-MB-231 breast = system: MDA-MB-231 breast
MDA-MB-435 = system: MDA-MB-435
MDA-N = system: MDA-N
MOLT-4 leukemia = system: MOLT-4 leukemia
NCI-H226 lung = system: NCI-H226 lung
NCI-H23 lung = system: NCI-H23 lung
NCI-H522 lung = system: NCI-H522 lung
NCI/ADR-RES ovarian = system: NCI/ADR-RES ovarian
OVCAR-3 ovarian = system: OVCAR-3 ovarian
OVCAR-4 ovarian = system: OVCAR-4 ovarian
OVCAR-5 ovarian = system: OVCAR-5 ovarian
OVCAR-8 ovarian = system: OVCAR-8 ovarian
PC-3 prostate = system: PC-3 prostate
RPMI-8226 leukemia = system: RPMI-8226 leukemia
RXF 393 renal = system: RXF 393 renal
SF-268 CNS = system: SF-268 CNS
SF-295 CNS = system: SF-295 CNS
SF-539 CNS = system: SF-539 CNS
SK-MEL-2 melanoma = system: SK-MEL-2 melanoma
SK-MEL-28 melanoma = system: SK-MEL-28 melanoma
SK-MEL-5 melanoma = system: SK-MEL-5 melanoma
SN12C renal = system: SN12C renal
SNB-19 CNS = system: SNB-19 CNS
SW-620 colon = system: SW-620 colon
T-47D breast = system: T-47D breast
TK-10 renal = system: TK-10 renal
U251 CNS = system: U251 CNS
UACC-257 melanoma = system: UACC-257 melanoma
UACC-62 melanoma = system: UACC-62 melanoma
UO-31 renal = system: UO-31 renal
HCC-2998 colon = system: HCC-2998 colon
NCI-H460 lung = system: NCI-H460 lung
SK-OV-3 ovarian = system: SK-OV-3 ovarian
SNB-75 CNS = system: SNB-75 CNS
SR leukemia = system: SR leukemia

SMILES: CCc1n[nH]c(=O)n1/N=C(\C)c1ccccc1
- TGI (786-0 renal): > 100 µM
- TGI (A498 renal): > 100 µM
- TGI (A549 NSCLC): > 100 µM
- TGI (ACHN renal): > 100 µM
- TGI (BT-549 breast): > 100 µM
- TGI (CAKI-1 renal): > 100 µM
- TGI (CCRF-CEM leukemia): > 100 µM
- TGI (COLO 205 colon): > 100 µM
- TGI (DU-145 prostate): > 100 µM
- TGI (EKVX NSCLC): > 100 µM
- TGI (HCT-116 colon): > 100 µM
- TGI (HCT-15 colon): > 100 µM
- TGI (HL-60(TB) leukemia): > 100 µM
- TGI (HOP-62 NSCLC): > 100 µM
- TGI (HS 578T breast): > 100 µM
- TGI (HT29 colon): > 100 µM
- TGI (IGROV1 ovarian): > 100 µM
- TGI (K-562 leukemia): > 100 µM
- TGI (KM12 colon): > 100 µM
- TGI (LOX IMVI melanoma): > 100 µM
- TGI (M14 melanoma): > 100 µM
- TGI (MALME-3M melanoma): > 100 µM
- TGI (MCF7 breast): > 100 µM
- TGI (MDA-MB-231 breast): > 100 µM
- TGI (MDA-MB-435): > 100 µM
- TGI (MDA-N): > 100 µM
- TGI (MOLT-4 leukemia): > 100 µM
- TGI (NCI-H226 lung): > 100 µM
- TGI (NCI-H23 lung): > 100 µM
- TGI (NCI-H522 lung): > 100 µM
- TGI (NCI/ADR-RES ovarian): > 100 µM
- TGI (OVCAR-3 ovarian): > 100 µM
- TGI (OVCAR-4 ovarian): > 100 µM
- TGI (OVCAR-5 ovarian): > 100 µM
- TGI (OVCAR-8 ovarian): > 100 µM
- TGI (PC-3 prostate): > 100 µM
- TGI (RPMI-8226 leukemia): > 100 µM
- TGI (RXF 393 renal): > 100 µM
- TGI (SF-268 CNS): > 100 µM
- TGI (SF-295 CNS): > 100 µM
- TGI (SF-539 CNS): > 100 µM
- TGI (SK-MEL-2 melanoma): > 100 µM
- TGI (SK-MEL-28 melanoma): > 100 µM
- TGI (SK-MEL-5 melanoma): > 100 µM
- TGI (SN12C renal): > 100 µM
- TGI (SNB-19 CNS): > 100 µM
- TGI (SW-620 colon): > 100 µM
- TGI (T-47D breast): > 100 µM
- TGI (TK-10 renal): > 100 µM
- TGI (U251 CNS): > 100 µM
- TGI (UACC-257 melanoma): > 100 µM
- TGI (UACC-62 melanoma): > 100 µM
- TGI (UO-31 renal): > 100 µM

SMILES: Nc1ccccc1C(=O)N=Nc1c(O)[nH]c2ccccc12
- TGI (786-0 renal): > 100 µM
- TGI (A498 renal): > 100 µM
- TGI (A549 NSCLC): > 100 µM
- TGI (ACHN renal): > 100 µM
- TGI (BT-549 breast): > 100 µM
- TGI (CAKI-1 renal): > 100 µM
- TGI (CCRF-CEM leukemia): > 100 µM
- TGI (COLO 205 colon): > 100 µM
- TGI (DU-145 prostate): > 100 µM
- TGI (EKVX NSCLC): > 100 µM
- TGI (HCC-2998 colon): > 100 µM
- TGI (HCT-116 colon): > 100 µM
- TGI (HCT-15 colon): > 100 µM
- TGI (HOP-62 NSCLC): > 100 µM
- TGI (HS 578T breast): 73.8 µM
- TGI (HT29 colon): > 100 µM
- TGI (IGROV1 ovarian): > 100 µM
- TGI (K-562 leukemia): > 100 µM
- TGI (KM12 colon): > 100 µM
- TGI (M14 melanoma): > 100 µM
- TGI (MALME-3M melanoma): > 100 µM
- TGI (MCF7 breast): > 100 µM
- TGI (MDA-MB-231 breast): > 100 µM
- TGI (MDA-MB-435): > 100 µM
- TGI (MDA-N): > 100 µM
- TGI (MOLT-4 leukemia): > 100 µM
- TGI (NCI-H226 lung): > 100 µM
- TGI (NCI-H23 lung): > 100 µM
- TGI (NCI-H460 lung): > 100 µM
- TGI (NCI-H522 lung): > 100 µM
- TGI (NCI/ADR-RES ovarian): > 100 µM
- TGI (OVCAR-3 ovarian): > 100 µM
- TGI (OVCAR-4 ovarian): > 100 µM
- TGI (OVCAR-5 ovarian): > 100 µM
- TGI (OVCAR-8 ovarian): > 100 µM
- TGI (PC-3 prostate): > 100 µM
- TGI (RXF 393 renal): > 100 µM
- TGI (SF-268 CNS): > 100 µM
- TGI (SF-295 CNS): > 100 µM
- TGI (SF-539 CNS): > 100 µM
- TGI (SK-MEL-2 melanoma): > 100 µM
- TGI (SK-MEL-5 melanoma): > 100 µM
- TGI (SK-OV-3 ovarian): > 100 µM
- TGI (SN12C renal): > 100 µM
- TGI (SNB-19 CNS): > 100 µM
- TGI (SNB-75 CNS): 81 µM
- TGI (SR leukemia): > 100 µM
- TGI (T-47D breast): > 100 µM
- TGI (TK-10 renal): > 100 µM
- TGI (U251 CNS): > 100 µM
- TGI (UACC-257 melanoma): > 100 µM
- TGI (UACC-62 melanoma): > 100 µM
- TGI (UO-31 renal): > 100 µM
